Laboratory results reported in patent US20260021131A1, “USE OF MI[…] IN COMBINATION WITH CA[…] TREATING NASOPHARYNGEAL CARCINOMA” (CSPC ZHONGQI PHARMACEUTICAL TECHNOLOGY (SHIJIAZHUANG) CO., …, priority 2022, published 2026).

What was measured:
[1] = tested on: subjects with recurrent and/or metastatic nasopharyngeal carcinoma who have failed platinum-based therapy; test: Phase III clinical study of mitoxantrone hydrochloride liposome injection combined with capecitabine versus capecitabine monotherapy: efficacy evaluation (best overall response, RECIST 1.1); assay type: in vivo, human; set-up: key to Best overall response: complete response (CR); partial response (PR); stable disease (SD); disease progression (PD)
Text: (§1) Example 1. A Randomized, Open-Label, Positive-Controlled, Multi-center Phase III Clinical Study of Mitoxantrone Hydrochloride Liposome Injection Combined with Capecitabine Versus Capecitabine Monotherapy in Subjects with Recurrent and/or Metastatic Nasopharyngeal Carcinoma Who Have Failed Platinum-Based Therapy.
This study is a randomized, open-label, positive-controlled, multicenter phase III clinical study whose objective is to evaluate the efficacy and safety of mitoxantrone hydrochloride liposome injection combined with capecitabine versus capecitabine monotherapy in subjects with recurrent and/or metastatic nasopharyngeal carcinoma.
(§2) Subjects with recurrent and/or metastatic nasopharyngeal carcinoma who have failed first-line or second-line platinum-based therapy will be enrolled. After screening, eligible subjects are stratified-randomized (stratification factors: (1) ECOG score: 0 vs. 1; (2) whether a liver metastasis is present: any metastasis is present vs. all metastases are not present; (3) gender: male vs. female) in a 1:1 ratio into an experimental group and a control group.
(§3) The experimental group receives treatment with mitoxantrone hydrochloride liposome injection (20 mg/m^2) combined with capecitabine (1000 mg/m^2, twice daily), with every 3 weeks as a treatment cycle. The mitoxantrone hydrochloride liposome is administered on day 1 of each cycle, and capecitabine is administered on days 1 to 14. After 8 cycles of treatment with the mitoxantrone hydrochloride liposome, the investigator will assess the patient's risk-benefit ratio to determine whether to continue treatment until disease progression or intolerance, and capecitabine monotherapy as maintenance treatment. The control group receives capecitabine monotherapy, with every 3 weeks as a treatment cycle. Capecitabine monotherapy is administered on days 1 to 14 of each cycle. Sparse blood collection is conducted for all subjects in the experimental group.
During the study, the Independent Data Monitoring Committee (IDMC) will conduct safety assessments after two cycles of treatment for the first 40 subjects enrolled (about 20 per group) and throughout the study. Enrollment will continue during the safety assessment period. All subjects will be treated until disease progression according to the RECIST1.1 criteria, intolerable toxicity, withdrawal of informed consent, initiation of new anti-tumor therapy, loss to follow-up, death, or end of study, whichever occurs first. If the subject has no more treatment options after the investigator first determines that the subject has experienced disease progression, and the investigator determines that the subject can continue to benefit from the trial treatment, the subject may continue to receive the trial treatment in this trial until disease progression as assessed by the IRC or the investigator determines that the subject no longer benefits. […]

[2] = tested on: subjects with recurrent and/or metastatic nasopharyngeal carcinoma who have failed platinum-based therapy; assay type: in vivo, human
Text: as §1, §2, §3
During the study, the Independent Data Monitoring Committee (IDMC) will conduct safety assessments after two cycles of treatment for the first 40 subjects enrolled (about 20 per group) and throughout the study. Enrollment will continue during the safety assessment period. All subjects will be treated until disease progression according to the RECIST1.1 criteria, intolerable toxicity, withdrawal of informed consent, initiation of new anti-tumor therapy, loss to follow-up, death, or end of study, whichever occurs first. If the subject has no more treatment options after the investigator first determines that the subject has experienced disease progression, and the investigator determines that the subject can continue to benefit from the trial treatment, the subject may continue to receive the trial treatment in this trial until disease progression as assessed by the IRC or the investigator determines that the subject no longer benefits.
• Objective response rate (ORR), disease control rate (DCR), and duration of response (DOR) as assessed by the investigator and the IRC • Progression-free survival (PFS) as assessed by the investigator • Frequency and severity of AEs (NCI CTCAE 5.0); changes in vital signs, physical examinations, electrocardiograms, and laboratory findings • Total mitoxantrone and free mitoxantrone plasma concentrations. • Note: The abbreviations described above have the following meanings: • PFS: progression-free survival, defined as the time between the initial treatment of study drug and the date of disease progression (PD) or death, whichever occurs first. • OS: overall survival, defined as the time from the initial treatment of the study drug to death from any cause. • ORR: objective response rate, defined as the proportion of subjects achieving complete response (CR) and partial response (PR). • DCR: disease control rate, defined as the proportion of subjects achieving complete response (CR), partial response (PR), and stable disease (SD). • DOR: duration of response, defined as the time from the first assessment of CR or PR to the first assessment of PD or death from any cause.

[3] = subjects evaluated for BOR (9 experimental group, 5 control group), by Jul. 31, 2023

**Q.** Which results are given for `CCCCCOC(=O)Nc1nc(=O)n([C@@H]2O[C@H](C)[C@@H](O)[C@H]2O)cc1F` [control group, capecitabine]?
**A.** Best overall response ([1]; subject S01005, ECOG 0, 1 line received, metastasis liver and lung): SD; Best overall response ([1]; subject S13001, ECOG 1, 1 line received, metastasis liver, spleen, and bone): PD; Best overall response ([1]; subject S14001, ECOG 1, 2 lines received, metastasis liver and bone): PD; Best overall response ([1]; subject S24001, ECOG 1, 2 lines received, metastasis bone): PR; Best overall response ([1]; subject S32001, ECOG 1, 1 line received, metastasis liver): PD; Best overall response (BOR): number of evaluated subjects with PD [1, 3]: three; Best overall response (BOR): number of evaluated subjects with PR [1, 3]: one; Best overall response (BOR): number of evaluated subjects with SD [1, 3]: one; Best overall response (BOR): percentage of evaluated subjects with PD [1, 3]: 60%; Best overall response (BOR): percentage of evaluated subjects with PR [1, 3]: 20%; Best overall response (BOR): percentage of evaluated subjects with SD [1, 3]: 20%; SAE: Acute epiglottitis ([2]; both, human, in vivo): 0 n (%); SAE: Anemia ([2]; both, human, in vivo): 0 n (%); SAE: Bacterial pneumonia ([2]; both, human, in vivo): 1 (3.3%) n (%); SAE: Cancer pain ([2]; both, human, in vivo): 0 n (%); SAE: Dysphagia ([2]; both, human, in vivo): 1 (3.3%) n (%); SAE: General fatigue ([2]; both, human, in vivo): 0 n (%); SAE: Hypokalemia ([2]; both, human, in vivo): 0 n (%); SAE: Hyponatremia ([2]; both, human, in vivo): 0 n (%); SAE: Neutrophil count decreased ([2]; both, human, in vivo): 0 n (%); SAE: Oralmucositis ([2]; both, human, in vivo): 1 (3.3%) n (%); SAE: Platelet count decreased ([2]; both, human, in vivo): 0 n (%); SAE: Post-cardiac arrest resuscitation syndrome ([2]; both, human, in vivo): 1 (3.3%) n (%); SAE: Posterior-circulation ischemia ([2]; both, human, in vivo): 1 (3.3%) n (%); SAE: Pulmonary infection ([2]; both, human, in vivo): 0 n (%); SAE: Severe pneumonia ([2]; both, human, in vivo): 1 (3.3%) n (%); SAE: Sinusitis ([2]; both, human, in vivo): 0 n (%); SAE: Upper airway obstruction ([2]; both, human, in vivo): 0 n (%); SAE: White blood cell count decreased ([2]; both, human, in vivo): 0 n (%); Subjects who experienced serious adverse events (SAEs), total ([2]; both, human, in vivo): 3 subjects; SAE: Death from unknown cause ([2]; experimental group N = 32, control group N = 30): 1 (3.3%) n (%); Subjects who died (end of the study) ([2]; up to Jul. 31, 2023, 32 subjects experimental group, 30 subjects control group): two
